Patent publication US9981043B2, “Analgesic conjugates” (priority 2013, dated 2018)
“Also recorded” adds a separate entry of the source.

Assays:
control mice [1] = assay: Radiant tail flick antinociception, control (not pretreated) mice; format: in vivo; settings: controls; for ED50 (CI) i.c.v. / ED50 (CI) i.t.: tail flick
Method: (§1) Compounds were dissolved in 10% DMSO and then diluted to less than 1% DMSO in the test solutions. […] Compounds were administered in a 5-μl volume in conscious mice, either i.c.v. (Haley T J & McCormick W G, Br J Pharmacol Chemother, 1957, 12(1), 12-15) or i.t. (Hylden J L K & Wilcox G L, Eur. J. Pharmacol., 1980, 67(2-3), 313-316). Peak times were determined by comparing the percent maximal possible effect (% MPE) at 5, 10, 20 and 60 minutes after injection.
(§2) The tail flick assay is used first to test for antinociception as described by D'Amour and Smith (D'AMOUR FE & SMITH DL (1941) J. Pharmacol. Exp. Ther. 72(1):74-79) and modified by Dewey et al. (Dewey W L, Harris L S, Howes J F, & Nuite JA (1970) J. Pharmacol. Exp. Ther. 175(2):435-442). For the measurement of the tail-flick latency, mice are wrapped in a light cloth and held gently in one hand with the tail positioned in the apparatus (Tail Flick Analgesia Meter, Columbus Instruments, Columbus, Ohio) for radiant heat stimulus. The tail-flick response is elicited by applying radiant heat to the dorsal side of the tail. The intensity of the heat is set so that the mouse flicks its tail within 2 to 3 seconds. The test latency is measured before drug treatment (control) and again after the drug treatment (test) at the peak time of the compound; a 10 second maximum cut-off time is used to prevent damage to the tail. Antinociception is quantified according to the Harris L S & Pierson A K, J. Pharmacol. Exp. Ther., 1964, 143(2):141-148, as the percent maximal possible effect (% MPE), which is calculated as: % MPE=(Test−Control/10−Control)×100.
(§3) At least three groups of four to ten mice are used for each dose response curve. ED50 values with 95% confidence intervals (C.I.) are computed with GraphPad Prism 4 by using nonlinear regression methods.

LPS pretreated mice [2] = assay: Radiant tail flick antinociception, LPS pretreated mice; format: in vivo; settings: for % MPE / dose range of antinociception: LPS pretreated; for ED50 (CI) i.t. / ED50 (CI) i.c.v.: LPS pretreated (1 mg/kg 24 hours i.p.)
Method: as §1
The first group mice were pretreated with lipopolysaccaride (LPS, 1 mg/kg, i.p. from Escherichia coli 0111:B4; Sigma-Aldrich, St. Louis, Mo.) for 24 hours before testing for antinociception of compounds 2-6 (Seo Y-J, et al., Pharmacol., Biochem. Behav., 2008, 91, 121-127). This group was compared to a group without pretreatment.
as §2, §3

control mice [3] = assay: Acute (24 hour) tolerance, tail flick, control mice; format: in vivo; settings: controls
Method: (§4) Acute tolerance utilizing the radiant tail flick assay was measured by comparing the ED80-90 dose on day 1 to the same dose measured 24 hours later on the same mouse. For the LPS pretreated mice, no additional LPS was given to the mice for the acute tolerance test. […] However, the effect was less robust 72 hours after the initial LPS injection. Thus confirming that the acute tolerance test was accurate for the LPS pretreated mice.

LPS pretreated mice [4] = assay: Acute (24 hour) tolerance, tail flick, LPS pretreated mice; format: in vivo; settings: 24 hours
Method: as §4

[5] = system: C3H mice with bone cancer; assay: von Frey mechanical hyperalgesia, bone cancer (fibrosarcoma) mice; format: in vivo; settings: bone cancer, 250 pmol/mouse, day 3
Method: The mouse hind paw model of bone cancer was the third model of pain (Wacnik P W, et al., Pain Research & Management, 2000, 16, 615-637; and Wacnik P W, et al., J Neurosci, 2001, 21(23), 9355-9366). Cell Culture: National Collection of Type Cultures (NCTC) clone 2472 fibrosarcoma cells, originally derived from a connective tissue tumor in a C3H mouse, were obtained from the American Type Cell Culture Collection (Rockville, Md.). Cells were grown and maintained in accordance with standard cell culturing techniques. NCTC cells were grown to 80-90% confluence in 75 cm^2 flasks (Corning, Lowell, Mass.) in Dulbecco's Modification of Eagles Medium (Invitrogen, Carlsbad, Calif.) fortified with 10% Horse Serum and sodium bicarbonate. Cell cultures were housed in a water-jacketed incubator with 5% carbon dioxide at 37° C.
Cells were prepared for implantation by first pouring off the culture medium and washing with phosphate-buffered saline (PBS). Trypsin was added to flask and placed in incubator for 3 minutes. Upon detachment, cells were suspended in an ample amount of culture medium to terminate enzymatic activity and centrifuged for 10 min at 1000 g. Fibrosarcoma cells were re-suspended in a known amount of PBS for counting, quantified on a hemacytometer, pelleted and re-suspended in PBS. Fibrosarcoma cells were again re-suspended to a final concentration of 2×10^5 cells in 20 μl. Initially, animals were anesthetized in a plexi-glass chamber using 3% isoflurane in 3 L/min oxygen. Once each mouse was completely anesthetized, a maintenance rate of 2% isoflurane in 1.5 L/min oxygen was maintained during the short implantation procedure. Tumor cells were manually injected by boring into the calcaneus bone using a 29½ gauge needle connected to a sterile 0.3 ml insulin syringe as previously described (19). Following injection, mice were allowed to recover in cages on a heating pad. Animals showing any signs of dysfunction (e.g. problems with ambulation, lethargy or excessive bleeding) or distress where euthanized according to CO2 guidelines.
C3H mice were was placed under a clean glass cup on a wire mesh grid and allowed to acclimate for thirty minutes. Mechanical hypersensitivity was tested using a von Frey filament #3.61 (which produces a force of […]) to the plantar surface of both the left and right hind paw with enough force to cause it to bow slightly. Starting with the right hind paw, the number of positive responses out of a total of 10 applications was recorded followed by the left hind paw. Positive response was indicated by a sharp withdrawal or flinching behavior of the paw. Baseline von Frey measurements were obtained prior to treatment with CFA, tumor and saline controls. […] Subsequent measurements were taken at various time points after intrathecal (i.t.) injection of test compounds on days 3, 7, 10, 14, 17, and 21. % MPE was calculated ((Time-point value−Day# baseline)/(Day 0 baseline−day# baseline))*100 (Smeester B A, Al-Gizawiy M, & Beitz A J (2012) Evidence-Based Complementary and Alternative Medicine 2012:16). Animals with saline injection served as controls for tumor cell implantation and tumor-induced nociception. Behavioral assessments were conducted during the light cycle at approximately the same time each day. The investigator performing the von Frey testing was blinded to the animal and compound injected.
A well-established rodent hind paw model of bone cancer pain (Wacnik P W, et al., J Neurosci. 2001, 21(23), 9355-66) was to examine the effects of representative bivalent ligands on tumor-induced nociception. The inbred C3H/He line is syngeneic to the fibrosarcoma cells used in these experiments and allows these cells to grow tumors without rejection. Male C3H mice were used for all experiments. Animals were maintained on a 12 hour light/dark cycle with food and water ad libitum.
Cells were prepared for implantation by first pouring off the culture medium and washing with phosphate-buffered saline (PBS). […]

C3H/HeNCrlVr mice = settings: intrathecal; spontaneous pain, mechanical allodynia, thermal hyperalgesia; cited from earlier work
live mice = assay: Respiratory depression (Mouse Ox O2 saturation); format: in vivo; settings: i.t.; dose 100 times the ED90
Method: Respiratory depression was measured in live mice using the Mouse Ox (small animal Oximeter from STARR Life Sciences Corp, Oakmont, Pa.). CollarClip™—(Un-Anesthetized Neck Sensor) for mice was used as the site for measuring the data. Day one of each experiment involved training the animals using a disposable CollarClip™. The collar was left on for approximately one hour. […] Mice were monitored for a 60-minute period, with measurements 10-20-30 and 60 minutes.
Respiratory depression was measured in live mice using the Mouse Ox (small animal Oximeter from STARR Life Sciences Corp, Oakmont, Pa.). CollarClip™ (Un-Anesthetized Neck Sensor) for mice was used as the site for measuring the data.
Day one of each experiment involved training the animals using a disposable CollarClip™. The collar was left on for approximately one hour.
Mice were monitored for a 60-minute period, with measurements 10-20-30 and 60 minutes.

SMILES | ED50 (CI) i.c.v. (control mice [1]; i.c.v.) [pmol/mouse] | ED50 (CI) i.t. (control mice [1]; i.t.) [pmol/mouse] | ED50 (CI) i.t. (LPS pretreated mice [2]; i.t.) [pmol/mouse] | dose range of antinociception (LPS pretreated mice [2]; i.t.) | Tolerance (control mice [3]; i.c.v.) | Tolerance (control mice [3]; i.t.) | Tolerance (LPS pretreated mice [4]; i.t.) | ED50 (CI) i.c.v. (LPS pretreated mice [2]; i.c.v.) [pmol/mouse] | other results
COc1cccc(C#Cc2cccc(C)n2)c1 [Compound 2, 2-((3-methoxyphenyl)ethynyl)-6-methylpyridine, reference compound] |  |  |  |  |  |  |  |  | % MPE (control mice [1]; i.c.v., 250 pmol/mouse): 14.59 ± 4.63% MPE; % MPE (control mice [1]; i.t., 250 pmol/mouse): 13.27 ± 3.39% MPE; % MPE (LPS pretreated mice [2]; i.t., 250 pmol/mouse): 21.96 ± 10.50% MPE
Cc1cccc(C#Cc2cccc(OCCNC(=O)COCC(=O)N[C@H]3CC[C@@]4(O)C5Cc6ccc(O)c7c6[C@@]4(CCN5C)[C@H]3O7)c2)n1 [Compound 3, N-((4aS,7S,7aR,12bS)-4a,9-dihydroxy-3-methyl-2,3,4,4a,5,6,7,7a-octahydro-1H-4,12-methanobenzofuro[3,2-e]isoquinolin-7-yl)-2-(2-((2-(3-((6-methylpyridin-2-yl)ethynyl)phenoxy)ethyl)amino)-2-oxoethoxy)acetamide] | 529.6 | 114.7 | 8.17 | nmol range | Tolerance | No Tolerance | Tolerance was also observed; also recorded: exhibited tolerance |  | % MPE (LPS pretreated mice [2]; i.c.v., 500 pmol/mouse): 56.86 ± 8.95% MPE
Cc1cccc(C#Cc2cccc(OCCNC(=O)COCC(=O)NCCNC(=O)COCC(=O)N[C@H]3CC[C@@]4(O)C5Cc6ccc(O)c7c6[C@@]4(CCN5C)[C@H]3O7)c2)n1 [Compound 4a, N-((4aS,7S,7aR,12bS)-4a,9-dihydroxy-3-methyl-2,3,4,4a,5,6,7,7a-octahydro-1H-4,12-methanobenzofuro[3,2-e]isoquinolin-7-yl)-2-((14-(3-((6-methylpyridin-2-yl)ethynyl)phenoxy)-2,7,11-trioxo-9-oxa-3,6,12-triazatetradecyl)oxy)acetamide] | 119.50 | 34.31 | 20.57 | nmol range | Tolerance | Tolerance | created tolerance; also recorded: exhibited tolerance | 80.85 | Tolerance (LPS pretreated mice [4]; i.c.v.): Tolerance
Cc1cccc(C#Cc2cccc(OCCNC(=O)COCC(=O)NCCCNC(=O)COCC(=O)N[C@H]3CC[C@@]4(O)C5Cc6ccc(O)c7c6[C@@]4(CCN5C)[C@H]3O7)c2)n1 [Compound 4b, N-((4aS,7S,7aR,12bS)-4a,9-dihydroxy-3-methyl-2,3,4,4a,5,6,7,7a-octahydro-1H-4,12-methanobenzofuro[3,2-e]isoquinolin-7-yl)-2-((1-(3-((6-methylpyridin-2-yl)ethynyl)phenoxy)-4,8,14-trioxo-6-oxa-3,9,13-triazapentadecan-15-yl)oxy)acetamide] | 113.3 | 36.08 | 10.08 | nmol range | No Tolerance | No Tolerance | devoid of tolerance; also recorded: No Tolerance | 64.36 | Tolerance (LPS pretreated mice [4]; i.c.v.): No Tolerance
Cc1cccc(C#Cc2cccc(OCCNC(=O)COCC(=O)NCCCCCCCNC(=O)COCC(=O)N[C@H]3CC[C@@]4(O)C5Cc6ccc(O)c7c6[C@@]4(CCN5C)[C@H]3O7)c2)n1 [Compound 4d, N-((4aS,7S,7aR,12bS)-4a,9-dihydroxy-3-methyl-2,3,4,4a,5,6,7,7a-octahydro-1H-4,12-methanobenzofuro[3,2-e]isoquinolin-7-yl)-2-((1-(3-((6-methylpyridin-2-yl)ethynyl)phenoxy)-4,8,18-trioxo-6-oxa-3,9,17-triazanonadecan-19-yl)oxy)acetamide] |  | 132.7 |  | nmol range |  | No tolerance | devoid of tolerance; also recorded: No tolerance | 411.9 | % MPE (control mice [1]; i.c.v., 1000 pmol): 53.76 ± 16.36% MPE
CNC(=O)COCC(=O)NCCCNC(=O)COCC(=O)NCCOc1cccc(C#Cc2cccc(C)n2)c1 [Compound 6, N-methyl-2-(1-(3-((6-methylpyridin-2-yl)ethynyl)phenoxy)-4,8,14-trioxo-6-oxa-3,9,13-triazapentadecan-15-yloxy)acetamide] |  |  | 548.7 |  |  |  | No tolerance |  | % MPE (control mice [1]; i.c.v., 250 pmol/mouse): 24.87 ± 11.77% MPE; % MPE (control mice [1]; i.t., 2500 pmol/mouse): 26.13 ± 7.27% MPE; % MPE (LPS pretreated mice [2]; i.c.v., 2500 pmol/mouse): 38.83 ± 11.59% MPE; % MPE [5]: 17.59±18.24 % MPE
Cc1cccc(C#Cc2ccccc2)n1 [MPEP] |  |  |  |  |  |  |  |  | effect on bone cancer-evoked pain (C3H/HeNCrlVr mice): attenuated bone cancer-evoked spontaneous pain
CN1CC[C@]23c4c5ccc(O)c4O[C@H]2[C@@H](O)C=C[C@H]3[C@H]1C5 [Morphine, reference compound] |  |  |  |  |  |  |  |  | % of mice with O2 Saturation less than 90% (live mice): 50%
